The subject of data set [1] is LS patient cells. As to the kind of experiment: Cell spreading assay after a predetermined time-point (cell area). The conditions noted are these: for LS cell spreading phenotype: LS patient fibroblasts, 30 min after seeding on fibronectin. It counts as cell-based, Human. As to the method: Two approaches to monitor cell spreading were used: after a predetermined time-point and at multiple time points.
1) Spreading after a Predetermined Time-Point.
(§1) Human dermal fibroblasts (12 h after seeding) were treated with the indicated drug (or vehicle) in 0.1% serum for the indicated time. After drug treatment, the cells were lifted with 20 mM EDTA (ethylenediaminetetraacetic acid) in PBS (phosphate-buffered saline), pelleted at 300×g for 5 min and resuspended in 1% serum in the presence of drug or vehicle. Cell suspensions were then set in a rotator for 1 hour before seeding them on fibronectin-coated coverslips for 30 min, undisturbed, to allow attachment and spreading. After spreading, coverslips were gently rinsed with PBS and fixed in 4% formaldehyde for 10 min at room temperature. Cells were stained with rhodamine—phalloidin and imaged by epifluorescence microscopy. At least 50 cells were quantified per experiment by tracing and measuring cell areas by using the magic wand tool in ImageJ software (National Institutes of Health (NIH), Bethesda, MD, USA).
(§2) Cell spreading on fibronectin-coated surfaces of cells treated with RhoA modulators in comparison to untreated cells was observed. Cells were fixed and stained with fluorescently labeled-phalloidin after 30 min spreading time at 37° C. Following imaging, cell area measurements were performed.

Data set [2] relates to HK2 and HEK293T OCRL1 K.O. cells. As to the kind of experiment: Cell spreading assay in kidney knock-out cells. To be noted: HK2 and HEK293T OCRL1 K.O. vs wild-type. The format is cell-based, Human. As for the experimental part:
Normal (GM07492) and LS primary dermal fibroblasts (GM01676 and GM03265) were obtained from the NIHGMS Human Genetic Cell Repository (Coriell Institute for Medical Research, Camden, NJ, USA). Cells were maintained in Dulbecco's Modified Eagle Medium (DMEM), streptomycin/penicillin, 2 mM L-glutamine and 15% fetal bovine serum (FBS) at 37° C. in a 5% CO2 incubator. When needed, cells were transferred to fibronectin-coated surfaces (plates or coverslips) prepared by incubation with 10 μg/mL fibronectin for 2 h at 37° C. Normal human proximal tubule epithelial (HK2) and human embryonic kidney epithelial 293T (HEK293T) cells obtained from ATCC were grown in DMEM, streptomycin/penicillin, 2 mM L-glutamine and 10% FBS at 37° C. in a 5% CO2 incubator. OCRL1^−/− (OCRL K.O) HK2 and HEK293T cells were prepared by GenScript, Inc., Piscataway, NJ, USA, and maintained under the same conditions as their normal counterparts. Characterization of these cell lines has been described before (Hsieh et al., PLoS One 10.1371/jounal.pone.0192635 (Feb. 14, 2018)).
Human dermal fibroblasts (12 h after seeding) were treated with the indicated drug (or vehicle) in 0.1% serum for the indicated time. […] At least 50 cells were quantified per experiment by tracing and measuring cell areas by using the magic wand tool in ImageJ software (National Institutes of Health (NIH), Bethesda, MD, USA).

Data set [3] relates to LS patient cells. Kind of data set: Viability/toxicity assessment (cell counting, morphology, MTT). It counts as cell-based, Human. To be noted: for toxicity (viability and stress-induced changes in morphology): LS cells after exposure to statins. As to the method: Cells were incubated with the indicated drugs for the specified times at different concentrations as described in low serum (0.1%) media to avoid substantial protein-mediated drug sequestration. In addition to cell counting post-treatment, a sample of cells seeded on fibronectin-coated coverslips was fixed and stained with fluorescein isothiocyanate (FITC)-phalloidin and DAPI (4′,6-diamidino-2-phenylindole) for cell morphology inspection. Viability was monitored by performing MTT (3-(4,5-dimethylthiazol-2-yl)-2,5-diphenyltetrazolium bromide) assays as follows: Following treatment of cells (in triplicates) with indicated drugs at different concentrations for specified times, media were aspirated and replaced with MTT solution (freshly prepared at 0.5 mg/ml in complete media) and incubated for 1.5 h. Additionally, a blank control with only MTT reagent containing no cells was also prepared. Following incubation, solution was aspirated and MTT was immediately solubilized using 1 mL DMSO (dimethylsulfoxide) (per well) by gentle pipetting. Absorbance values of solubilized MTT solution from the different wells were measured at 570 nm using a spectrophotometer.

Another data set concerns mTOR pathway in LS cells. As to the kind of experiment: Western blotting of PI3K/Akt/mTOR pathway. The format is cell-based, Human. As for the experimental part: Normal and LS cells were seeded on 100 mm plates and grown to 60-70% confluency in complete media. Then media was exchanged with 0.1% serum DMEM media with DMSO or 10 nM rapamycin for 12 hrs. The cells were washed twice with ice-cold PBS, collected by scraping cells in 200 μl/plate of lysis buffer (25 mM HEPES-KOH, pH7.4, 250 mM NaCl, 1% Triton-X-100 supplement with phosphatase and protease inhibitors), and lysed by passing the cells 10 times through a 26G1/2 needle. The lysates were centrifuged at 14,000×g for 20 min at 4° C., and the supernatant fractions were collected. The samples were analyzed by SDS-PAGE using 7% or 10% polyacrylamide gels and transferred to nitrocellulose membranes. The membranes were blocked with 5% skim milk in PBST (1× phosphate-buffered saline with Tween® detergent) and immunoblotted with the indicated primary and HRP-conjugated secondary antibodies.
The activation of the Akt and mTOR signaling pathways in LS cells treated or not with rapamycin was examined. Cell lysates were prepared, resolved by SDS-PAGE and the presence of phosphorylated and dephosphorylated key elements of the Akt and mTOR pathways were investigated by Western blotting with specific antibodies (FIG. 5D).
For orientation: A western blot detects proteins with antibodies after separation by electrophoresis.

The subject of data set [4] is LS patient cells. As to the kind of experiment: Ciliogenesis assay. The conditions noted are these: serum starvation. The format is cell-based, Human. As for the experimental part: Cells were seeded on glass cover slips and grown for 24 h in complete media. Then media was replaced by 0.1% serum DMEM (starvation media) containing vehicle or the drug to induce ciliogenesis for the indicated times. Cells were then fixed in 4% formaldehyde—PBS for 10 min and immuno-labeled with anti-acetylated tubulin antibody (see Table 2). At least 50 cells were imaged for every experiment and experiments were repeated at least thrice. The fraction of cells displaying cilia and cilia length were determined as described previously (Coon et al. (2012), supra).

A further data set has as its system HK2 OCRL1 K.O. cells. Kind of data set: Indirect immunofluorescence for lysosomes (Lamp2, autolysosomes). The format is cell-based, Human. To be noted: rapamycin (10 nM) or WYE (1 μM). As to the method:
Following treatment with drugs, cells were washed and fixed with 4% formaldehyde-PBS for 10 min and immune-labeled for LAMP2 (lysosome-associated membrane protein 2). Random fields were imaged using a Zeiss Axiovert inverted microscope using a 40× objective with constant fluorescence exposure times.

For data set [5] the following is noted: current approved rapamycin treatments; cited from earlier work.
The next data set has as its system normal cells. As to the kind of experiment: Cell adhesion by time-lapse microscopy. It counts as cell-based, Human. As for the experimental part:
Human dermal fibroblasts were treated as described above, seeded on fibronectin-coated LabTek chambers, and allowed to attach and spread. Cells were imaged at intervals of 10 min after seeding for 8 h using 20× objective in a Zeiss Axiovert inverted microscope. Number of detaching cells was quantified every 10 min up to the first hour by using the cell counter tool in ImageJ (NIH). To determine spreading kinetics, individual cells were tracked in each time lapse image and were scored from 1-5 based on general cell morphology. Briefly, cells that were just attached and looked circular with no protrusions or visible extensions received a score of 1. Cells with needle-like (filopodia) projections were scored 2, cells with lamellopodia-like extensions were scored 3, cells with more extended lamellopodia-like extensions and increased cell area were given a score of 4, and a further increase in cell area, often accompanied by isotropic spread morphology, was given a score of 5. Alternatively, cells were treated as described above and allowed to attach on fibronectin-coated dishes. Immediately after seeding, the cells were imaged with a 10× objective simultaneously using up to 3 Cytosmart Imaging Systems (Lonza, Basel, Switzerland) at intervals of 30 s for 2 h. Number of cells attached was quantified every 10 min up to the first hour using the Cell Counter tool in ImageJ software (NIH).

The next data set concerns Normal fibroblasts. Kind of data set: Cell spreading assay after a predetermined time-point (cell area). It counts as cell-based, Human. To be noted: 30 min after seeding on fibronectin. As to the method: as §1, §2

As for C3 transferase [RhoA inhibitor], the “cell spreading / membrane remodeling phenotype in cells from another LS patient” value with LS patient cells [1] (LS2 cells, FIG. 8A) was “confirmed”. Further, the “LS cell spreading phenotype” value in the data set on LS patient cells [1] was “ameliorated the cell spread phenotype”. The “cell spreading phenotype in OCRL1 K.O. kidney cells” value in data set [2] is “confirmed”.
For `O=C(O)C[C@H](O)C[C@H](O)/C=C/c1c(C2CC2)nc2ccccc2c1-c1ccc(F)cc1` [pitavastatin], the “LS cell spreading phenotype” value in the data set on LS patient cells [1] is given as “mitigated to a certain extent the LS spreading phenotype”. For the same compound, in the data set on LS patient cells [1] (LS spreading defects), the “ranking of statins: rescue effect over needed dose and toxicity” value is “rosuvastatin>pitavastatin>>>simvastatin and others”. Besides, in the data set on LS patient cells [3], the “toxicity (viability and stress-induced changes in morphology)” value is on record as “substantially toxic”.
Consider `C[C@@H]1COCCN1c1cc(=O)n2c(n1)N(Cc1cncc(Cl)c1)[C@H](C(F)(F)F)CC2` [SAR405], for which, in the data set with mTOR pathway in LS cells, the “mTOR activation / phosphorylation” value is listed as “did not affect mTOR activation”. The “ciliogenesis / PC assembly defects in LS cells” value with LS patient cells [4] was “had no effect on ciliogenesis by LS cells”.
In the case of `COCc1c(C(C)C)nc(C(C)C)c(/C=C/[C@@H](O)C[C@@H](O)CC(=O)O)c1-c1ccc(F)cc1` [cerivastatin], the “toxicity (viability and stress-induced changes in morphology)” value in the data set on LS patient cells [3] was “substantially toxic”.
Take `O=S(=O)(c1cccc2cnccc12)N1CCCNCC1` [fasudil]: the “LS cell spreading phenotype” value in the data set on LS patient cells [1] is given as “in contrast to the ROCK-inhibitor fasudil, the MLCK-inhibitor ML-7 was able to mitigate”.
In the case of `CC(C)n1nc(-c2ccc3oc(N)nc3c2)c2c(N)ncnc21` [INK128], the “mTOR activation / phosphorylation” value in the data set with mTOR pathway in LS cells is listed as “able to decrease mTOR phosphorylation”. Further, in the data set on LS patient cells [4], the “ciliogenesis / PC assembly defects in LS cells” value was “rescue ciliogenesis defects in LS cells”.
`CNC(=O)Nc1ccc(-c2nc(N3CC4CCC(C3)O4)c3cnn(C4CCC5(CC4)OCCO5)c3n2)cc1` [WYE132]: the “mTOR activation / phosphorylation” value in the data set on mTOR pathway in LS cells is given as “able to decrease mTOR phosphorylation”. The “autolysosome deficiencies (fraction of cells displaying autolysosomes)” value with HK2 OCRL1 K.O. cells is given as “can be rescued”. For the same compound, the “ciliogenesis / PC assembly defects in LS cells” value in the data set with LS patient cells [4] is “rescue ciliogenesis defects in LS cells”.
For `CO[C@H]1C[C@@H]2CC[C@@H](C)[C@@](O)(O2)C(=O)C(=O)N2CCCC[C@H]2C(=O)O[C@H]([C@H](C)C[C@@H]2CC[C@@H](O)[C@H](OC)C2)CC(=O)[C@H](C)/C=C(\C)[C@@H](O)[C@@H](OC)C(=O)[C@H](C)C[C@H](C)/C=C/C=C/C=C/1C` [rapamycin], the “toxicity on LS cells (decrease in viability, MTT)” value in the data set with LS patient cells [3] (after 72 h-treatment) was 10-15%. In addition, in data set [5], the plasma levels is 10 nM.
Regarding `CCCC[C@@H](C=O)NC(=O)[C@H](CC(C)C)NC(=O)OCc1ccccc1` [RhoA activator, calpeptin], in the data set on normal cells, the “proportion of de-attaching cells” value is listed as “increased proportion of de-attaching cells”. For the same compound, the “LS cell spreading phenotype” value in the data set with LS patient cells [1] is on record as “worsened the already impaired spreading ability of LS cells”. Further, the “cell spreading of normal cells” value in the data set on Normal fibroblasts was “displayed a “LS-like” cell spreading phenotype”.
`CSCC[C@H](NC(=O)c1ccc(NC[C@@H](N)CS)cc1-c1ccccc1)C(=O)O` [farnesylation inhibitor]: the “LS cell spreading phenotype” value with LS patient cells [1] is listed as “rescue the cell spreading phenotype of LS patient cells”.
On the same count and under the same terms, the same measure for `CC(C)c1c(C(=O)Nc2ccccc2)c(-c2ccccc2)c(-c2ccc(F)cc2)n1CC[C@@H](O)C[C@@H](O)CC(=O)O` [atorvastatin]: “mitigated to a certain extent the LS spreading phenotype”; for `O=S(=O)(c1cccc2c(I)cccc12)N1CCCNCC1` [ML-7]: “able to mitigate the cell spreading phenotype”.

Values taken from patent US12310964B2, “Compositions and methods for the treatment of Lowe Syndrome” (Purdue Research Foundation, priority 2020, dated 2025).
